Results reported in ChEMBL document CHEMBL1201862, “PubChem BioAssay data set” (2004).
Active and inactive are the calls of the source.

Tests used:
Streptococcus = test: Group A Streptococcus viability loss, dose response, counter-screen for streptokinase expression inhibitor project, luminescence, BacTiterGlo (AID 1915); type: functional, organism-based;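 further: potency for reduction of bacterial viability or growth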
Streptokinase A = biological target: T1, Streptokinase A (Streptococcus pyogenes serotype M1, UniProt P10520); test: S. pyogenes streptokinase expression inhibitors, potency, dose response, plasminogen activation absorbance, OD405 (AID 1914); type: functional, Streptococcus pyogenes M1 GAS;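 further: secreted streptokinase activity via plasminogen activation per viability signal from cell pellet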
T1 sequence (P10520 whole entry): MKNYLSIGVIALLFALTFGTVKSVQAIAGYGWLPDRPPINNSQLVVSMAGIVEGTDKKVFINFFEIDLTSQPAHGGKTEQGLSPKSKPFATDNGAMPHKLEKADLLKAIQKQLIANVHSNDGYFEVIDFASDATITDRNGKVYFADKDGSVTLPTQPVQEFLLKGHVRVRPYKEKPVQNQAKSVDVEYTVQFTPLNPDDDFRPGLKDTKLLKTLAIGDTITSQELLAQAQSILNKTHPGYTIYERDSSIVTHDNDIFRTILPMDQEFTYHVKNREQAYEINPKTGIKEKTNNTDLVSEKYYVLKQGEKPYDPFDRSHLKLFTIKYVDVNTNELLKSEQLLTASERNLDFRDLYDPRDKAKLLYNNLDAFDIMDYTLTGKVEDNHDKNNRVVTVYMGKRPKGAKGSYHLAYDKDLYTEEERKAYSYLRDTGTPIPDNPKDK

[1] = test system: Streptococcus sp. 'group A'; test: growth inhibition of control SK(-) GAS strain, dose response, counter-screen for streptokinase expression inhibitor project, luminescence, kanamycin, BacTiterGlo, confirmation (AID 1900); type: functional, organism-based
H9c2 = test: cells; type: functional, cell-based; conditions: Rattus norvegicus, H9c2, Myocardium
[2] = biological target: FAD-linked sulfhydryl oxidase ALR (Homo sapiens, UniProt P55789); test: inhibitors of human ALR sulfhydryl oxidase, dose response, biochemical, H2O2 detection, luminescence, cherry-pick (AID 493248)
Sequence of FAD-linked sulfhydryl oxidase ALR (P55789 whole entry): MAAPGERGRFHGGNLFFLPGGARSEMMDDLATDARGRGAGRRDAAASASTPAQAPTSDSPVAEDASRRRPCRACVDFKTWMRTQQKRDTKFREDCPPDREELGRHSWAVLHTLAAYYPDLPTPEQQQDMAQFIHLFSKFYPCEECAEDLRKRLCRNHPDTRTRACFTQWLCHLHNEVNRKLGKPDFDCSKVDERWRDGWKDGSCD

[3] = cytotoxicity toward NIH3T3 fibroblasts, dose response, counter-screen, cell-based, ATP luminescence, mouse fibroblasts (AID 2010); type: functional;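 further: cells exposed to compound for about 90 hours before reading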
[4] = inhibitors of intracellular T. cruzi replication, confirmation, NIH3T3 host cells, beta-gal luminescence (AID 2044); type: functional, cell-based;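 further: intracellular parasites grown in NIH/3T3 mouse fibroblasts as host cells; luminescent beta-galactosidase reporter signal from transgenic T. cruzi replicating inside host cells; inhibitors lower the luminescence signal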
[5] = biological target: T2, Corticotropin-releasing factor receptor 2/Corticotropin-releasing factor-binding protein (Homo sapiens, UniProt P24387+Q13324); test: activators of CRF receptor 2 with binding protein – uHTS hits, confirmation (AID 602473); type: functional; conditions: read-out: EC50_Mean
T2 sequence (Q13324 whole entry): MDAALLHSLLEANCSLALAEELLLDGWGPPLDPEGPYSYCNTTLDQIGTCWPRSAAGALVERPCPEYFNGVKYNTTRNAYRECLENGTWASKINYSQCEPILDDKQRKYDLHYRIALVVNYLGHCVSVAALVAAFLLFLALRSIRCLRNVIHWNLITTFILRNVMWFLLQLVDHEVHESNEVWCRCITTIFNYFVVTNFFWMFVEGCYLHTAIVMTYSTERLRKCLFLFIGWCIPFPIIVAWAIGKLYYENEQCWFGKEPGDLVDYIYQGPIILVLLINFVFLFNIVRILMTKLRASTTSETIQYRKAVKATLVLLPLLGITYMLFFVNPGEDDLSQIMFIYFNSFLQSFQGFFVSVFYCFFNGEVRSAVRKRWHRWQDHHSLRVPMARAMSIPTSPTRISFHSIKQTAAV
T2 sequence (P24387 whole entry): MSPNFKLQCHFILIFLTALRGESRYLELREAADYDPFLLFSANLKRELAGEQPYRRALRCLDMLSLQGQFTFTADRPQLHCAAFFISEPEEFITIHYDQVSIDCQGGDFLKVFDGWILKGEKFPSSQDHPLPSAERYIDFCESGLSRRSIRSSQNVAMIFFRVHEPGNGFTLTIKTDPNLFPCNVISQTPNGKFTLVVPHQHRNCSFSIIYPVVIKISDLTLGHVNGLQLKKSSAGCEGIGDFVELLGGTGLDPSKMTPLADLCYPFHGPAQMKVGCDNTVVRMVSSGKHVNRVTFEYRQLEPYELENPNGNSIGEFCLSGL

Cytochrome P450 2D6 = Cytochrome P450 2D6 (Homo sapiens, UniProt P10635);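 further: CYP2D6 member of a cytochrome P450 panel assay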
Sequence of Cytochrome P450 2D6 (P10635 whole entry): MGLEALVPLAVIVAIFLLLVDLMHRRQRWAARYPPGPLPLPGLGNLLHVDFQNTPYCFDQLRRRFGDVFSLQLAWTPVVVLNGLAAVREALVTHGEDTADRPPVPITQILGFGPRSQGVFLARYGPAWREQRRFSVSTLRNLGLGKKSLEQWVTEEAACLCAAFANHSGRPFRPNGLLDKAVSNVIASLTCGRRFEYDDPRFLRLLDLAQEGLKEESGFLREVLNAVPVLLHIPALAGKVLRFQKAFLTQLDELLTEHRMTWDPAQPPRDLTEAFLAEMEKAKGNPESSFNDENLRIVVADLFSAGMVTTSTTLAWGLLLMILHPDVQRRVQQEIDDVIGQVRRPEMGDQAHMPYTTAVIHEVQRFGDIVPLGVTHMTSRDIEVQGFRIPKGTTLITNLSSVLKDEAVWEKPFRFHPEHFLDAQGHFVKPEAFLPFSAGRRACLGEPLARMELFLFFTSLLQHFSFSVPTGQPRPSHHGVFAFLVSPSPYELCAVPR

Cytochrome P450 1A2 = biological target: T3, Cytochrome P450 1A2 (Homo sapiens, UniProt P05177);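 further: PubChem cytochrome P450 panel assay, CYP1A2 panel member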
T3 sequence (P05177 whole entry): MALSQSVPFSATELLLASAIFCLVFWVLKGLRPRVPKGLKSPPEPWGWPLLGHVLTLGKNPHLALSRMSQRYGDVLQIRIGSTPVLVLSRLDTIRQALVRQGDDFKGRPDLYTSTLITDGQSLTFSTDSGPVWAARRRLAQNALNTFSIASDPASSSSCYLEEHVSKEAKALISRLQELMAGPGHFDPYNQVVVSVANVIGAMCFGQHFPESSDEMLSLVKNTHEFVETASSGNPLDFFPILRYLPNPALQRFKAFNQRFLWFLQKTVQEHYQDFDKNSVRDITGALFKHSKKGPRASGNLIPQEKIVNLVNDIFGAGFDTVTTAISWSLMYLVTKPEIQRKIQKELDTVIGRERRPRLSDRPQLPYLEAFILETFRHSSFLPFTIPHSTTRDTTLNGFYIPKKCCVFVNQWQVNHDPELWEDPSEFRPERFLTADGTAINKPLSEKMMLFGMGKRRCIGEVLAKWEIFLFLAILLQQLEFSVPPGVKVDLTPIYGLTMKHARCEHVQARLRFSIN

[6] = biological target: T4, Rac GTPase-activating protein 1 (Homo sapiens, UniProt Q9H0H5); test: MgcRacGAP GTPase-activating activity inhibitors, confirmation, biochemical, ADP Hunter fluorescence, primary and confirmatory (AID 624330); type: functional
T4 sequence (Q9H0H5 whole entry): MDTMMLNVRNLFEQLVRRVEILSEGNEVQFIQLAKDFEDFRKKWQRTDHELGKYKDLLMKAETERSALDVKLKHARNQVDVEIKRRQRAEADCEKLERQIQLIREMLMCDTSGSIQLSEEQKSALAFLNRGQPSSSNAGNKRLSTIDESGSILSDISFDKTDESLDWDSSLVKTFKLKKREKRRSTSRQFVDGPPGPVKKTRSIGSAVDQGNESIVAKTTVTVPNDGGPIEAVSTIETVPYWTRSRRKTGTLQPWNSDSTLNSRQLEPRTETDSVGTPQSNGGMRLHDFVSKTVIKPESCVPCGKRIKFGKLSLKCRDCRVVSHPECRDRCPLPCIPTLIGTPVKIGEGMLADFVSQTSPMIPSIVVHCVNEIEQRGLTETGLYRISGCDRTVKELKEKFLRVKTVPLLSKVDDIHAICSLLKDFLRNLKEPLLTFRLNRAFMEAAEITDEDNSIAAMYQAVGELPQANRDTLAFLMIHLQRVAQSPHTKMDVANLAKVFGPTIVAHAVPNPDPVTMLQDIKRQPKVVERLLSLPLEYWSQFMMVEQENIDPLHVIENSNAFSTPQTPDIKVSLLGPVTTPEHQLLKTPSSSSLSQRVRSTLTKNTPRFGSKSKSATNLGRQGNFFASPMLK

INS1 = test: beta cell apoptosis inhibitors, cytokine rescue, dose response, luminescence, retest (AID 449756); type: functional, cell-based; conditions: Rattus norvegicus;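 further: cell death triggered by IL-1 beta plus TNF-alpha plus IFN-gamma mixture; protective hits raise ATP signal compared with cytokine alone wells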
[7] = Luminescence Cell-Based Dose Retest to Confirm Inhibitors of Cancer Stem Cells. [Related pubchem assays (depositor defined):AID2717, AID2721]; type: functional; conditions: Homo sapiens

## O=C(NNC(=S)NC(=O)c1ccccc1)c1ccc(O)cc1
Streptococcus
  EC50: 52.4 µM (inconclusive)
Streptokinase A
  EC50: > 150 µM (not active)
[1]
  EC50: 4.64 µM (active)

## O=C(CCc1nc(O)c2ccccc2n1)N1CCN(S(=O)(=O)c2cccc(F)c2)CC1
H9c2
  IC50: > 79 µM (inactive)

## O=C(COC(=O)CCc1nc(O)c2ccccc2n1)Nc1ccc2c(c1)OCO2
H9c2
  IC50: > 79 µM (inactive)

## Oc1ccccc1CNc1cnc2ccccc2c1
[2]
  AC50: 37.9 µM (active)

## COc1ccc(-c2cc(C#N)nc(N3CCN(C)CC3)n2)cc1
[3]
  EC50: > 30 µM (not active)
[4]
  EC50: 1.95 µM (active)

## CN(Cc1nc(-c2ccccn2)no1)S(=O)(=O)c1ccc(Cl)cc1
[5]
  EC50: > 53 µM (inactive)

## COCCn1c(C2CCCCC2)nc2sc3ccccc3c(=O)c2c1=O
[3]
  EC50: > 60 µM (not active)
[4]
  EC50: 2.28 µM (active)

## O=C(Nc1nc2ccccc2n1Cc1ccccc1)c1ccc(COc2ccccc2[N+](=O)[O-])o1
[3]
  EC50: > 60 µM (inconclusive)
[4]
  EC50: 1.25 µM (active)
Cytochrome P450 2D6
  AC50: 17.8 µM (inconclusive)
Cytochrome P450 1A2
  AC50: 1.78 µM (inconclusive)

## CCn1cc(C(=O)NC(=S)Nc2ccccc2Br)cn1
Streptococcus
  EC50: > 150 µM (not active)
Streptokinase A
  EC50: > 150 µM (not active)
[1]
  EC50: > 150 µM (not active)

## Cn1nnnc1SC1CC(=O)N(c2ccccc2)C1=O (configuration not stated)
[3]
  EC50: 7.1 µM (active)
[4]
  EC50: 3.7 µM (active)

## O=C(Nc1ccc(O)cc1)c1cc(S(=O)(=O)N2CCCC2)ccc1Cl
[2]
  AC50: 2.49 µM (active)

## Cc1cc(C)c(S(=O)(=O)Nc2ccc(O)cc2)c(C)c1
[2]
  AC50: 0.694 µM (active)
[6]
  IC50: 69.7 µM (active)

## CCCc1cc(N2CCN(C(=O)c3ccco3)CC2)n2c(nc3ccccc32)c1C#N
H9c2
  IC50: > 79 µM (inactive)

## Cc1ccc(Cl)cc1N1CCN(Cc2cc3c(cc2O)CCC3)CC1
[3]
  EC50: > 60 µM (not active)
[4]
  EC50: 2.65 µM (active)

## COc1ccc(-n2c(/C=C/c3ccc(O)cc3)nc3ccccc3c2=O)cc1
H9c2
  IC50: > 79 µM (inactive)

## Nc1cc(O)nc(SCc2csc(-c3ccccc3)n2)n1
[2]
  AC50: 5.71 µM (active)

## Nc1n[nH]c(Nc2ccccc2)n1
[2]
  AC50: 1.79 µM (active)

## CCC(CC)C(=O)c1c[nH]c(C(=O)NCc2ccccn2)c1
INS1
  AC50: > 260 µM (inactive)

## COc1ccc2c(c1)NC(C)(C)C=C2C
[3]
  EC50: > 60 µM (not active)
[4]
  EC50: 2.71 µM (active)

## CN1C(=O)C(=C/C=C/Nc2ccccc2)C(=O)N(C)C1=O
[5]
  EC50: > 53 µM (inactive)

## Cc1ccc2ccc(C(Nc3ccccn3)c3ccccc3)c(O)c2n1 (configuration not stated)
Streptococcus
  EC50: 63.5 µM (active)
Streptokinase A
  EC50: > 150 µM (not active)
[1]
  EC50: 1.52 µM (active)

## COc1ccccc1N1CCN(CCc2nnc(S)n2-c2ccccc2)CC1
[2]
  AC50: 2.88 µM (active)

## COc1ccc(C2CC(c3ccccc3)=NN2C(=O)COC(=O)c2nc3nc(C)cc(C)n3n2)cc1 (configuration not stated)
[3]
  EC50: > 60 µM (not active)
[4]
  EC50: 3.19 µM (active)

## Cc1sc2nc(SCC(=O)NCc3ccco3)nc(O)c2c1C
H9c2
  IC50: > 79 µM (inactive)

## Cc1ccc(/C=C2\C(=O)NC(=O)N(Cc3ccccc3Cl)C2=O)o1
[2]
  AC50: 0.494 µM (active)

## CCOC(=O)c1c(NC(=O)C[n+]2ccc(N(C)C)cc2)sc(C)c1C
[3]
  EC50: > 60 µM (not active)
[4]
  EC50: 1.44 µM (active)

## CC(c1nnc(S)n1-c1ccc(F)cc1)N1CCCCC1 (configuration not stated)
[2]
  AC50: 5.03 µM (active)

## CN1/C(=C\C(=O)c2ccco2)C(C)(C)c2ccccc21
INS1
  AC50: 6.55 µM (active)

## COc1ccc(OC)c(CCNC(=O)C(=O)Nc2ccc3nc4n(c(=O)c3c2)CCCCC4)c1
Streptococcus
  EC50: 18.3 µM (active)
Streptokinase A
  EC50: 16.6 µM (active)
[1]
  EC50: 4.97 µM (active)

## COCCCN1C(=O)/C(=C/c2ccc(CNS(=O)(=O)c3ccccc3)o2)C(C(=O)OC)=C1C
Streptococcus
  EC50: > 150 µM (not active)
Streptokinase A
  EC50: > 150 µM (not active)
[1]
  EC50: 28.9 µM (active)

## O=C(CCc1nc(O)c2ccccc2n1)NCCN1C(=O)S/C(=C\c2ccc(OC(F)F)cc2)C1=O
H9c2
  IC50: > 79 µM (inactive)

## Cc1csc2nc(COC(=O)c3ccc(Cl)c([N+](=O)[O-])c3)cc(=O)n12
H9c2
  IC50: > 79 µM (inactive)

## C[C@H](CO)N1C[C@H](C)[C@@H](CN(C)C(=O)Nc2ccc3c(c2)OCO3)Oc2c(NC(=O)Nc3ccc(C(F)(F)F)cc3)cccc2C1=O
H9c2
  IC50: 21.3 µM (active)

## Cc1ccccc1OCC(=O)NNC(=O)Cn1[nH]c(=O)c2ccccc2c1=O
H9c2
  IC50: > 79 µM (inactive)

## COc1cccc(-c2cc3nc(C)c(C)c(N4CCN(C(=O)c5ccoc5)CC4)n3n2)c1
H9c2
  IC50: > 79 µM (inactive)

## Cn1c(/C=N/NC(=O)c2ccccc2)nc2ccccc21
H9c2
  IC50: 13.5 µM (active)

## O=C(N/N=C/c1cccc(O)c1)c1cc(-c2ccc3c(c2)OCO3)[nH]n1
H9c2
  IC50: > 79 µM (inactive)

## CNC(=S)N/N=C/c1ccc(N2CCOCC2)s1
[3]
  EC50: > 60 µM (not active)
[4]
  EC50: > 60 µM (not active)
[6]
  IC50: 28.3 µM (active)

## CCN(CC)c1ccc(/C=N/NC(=O)CCC(=O)NCc2ccccc2)c(O)c1
[7]
  AC50: 5.66 µM (active)
Streptococcus
  EC50: 4.53 µM (active)
INS1
  AC50: 1.7 µM (active)
[1]
  EC50: 3.22 µM (active)

## Nc1ccc(Cl)cc1/C(=N/O)c1ccccc1
[2]
  AC50: 22.8 µM (active)

## CC(=N\Nc1ccccc1)/C(=N/O)C(=O)Nc1ccccc1
[2]
  AC50: 2.49 µM (active)
